Results taken from patent US11504382B2, “Tricyclic inhibitors of Hepatitis B virus” (Antios Therapeutics, Inc., priority 2018, dated 2022).

Test system: HBV
Experiment: HBV inhibition assay in HepAD38 cells (extracellular HBV DNA by direct qPCR)
Assay type: cell-based, Hepatitis B virus
Conditions: Hepatitis B virus, 96 hours; for inhibition at 0.1 µM / inhibition at 0.05 µM: relative to non-treated reference, read-out: Anti HBV Activity (conc μM); for EC50: 8-point dose-response curve, read-out: HBV inh EC50

SMILES | inhibition at 0.1 µM [%] | inhibition at 0.05 µM [%] | EC50 [nM]
Cn1cc2c(c1C(=O)Nc1cc(F)c(F)c(F)c1)OCC1CN(C(=O)c3c[nH]c(=O)cn3)CC1NS2(=O)=O (stereo not drawn) [Example E56, cis-7-methyl-2-(5-oxo-4,5-dihydropyrazine-2-carbonyl)-N-(3,4,5-trifluorophenyl)-2,3,3a,4,10,10a-hexahydro-1H,7H-dipyrrolo[3,4-b:3′,4′-f][1,4,5]oxathiazocine-8-carboxamide 5,5-dioxide] | < 50 | – | –
Cn1cc(C(=O)N2CC3COc4c(cn(C)c4C(=O)Nc4cc(F)c(F)c(F)c4)S(=O)(=O)NC3C2)cn1 (stereo not drawn) [Example E57, cis-7-methyl-2-(1-methyl-1H-pyrazole-4-carbonyl)-N-(3,4,5-trifluorophenyl)-2,3,3a,4,10,10a-hexahydro-1H,7H-dipyrrolo[3,4-b:3′,4′-f][1,4,5]oxathiazocine-8-carboxamide 5,5-dioxide] | < 50 | – | –
Cn1cc2c(c1C(=O)Nc1cc(F)c(F)c(F)c1)OCC1CN(C(=O)c3nccs3)CC1NS2(=O)=O (stereo not drawn) [Example E58, cis-7-methyl-2-(thiazole-2-carbonyl)-N-(3,4,5-trifluorophenyl)-2,3,3a,4,10,10a-hexahydro-1H,7H-dipyrrolo[3,4-b:3′,4′-f][1,4,5]oxathiazocine-8-carboxamide 5,5-dioxide] | – | > 50 | < 1000
Cn1cc2c(c1C(=O)Nc1cc(F)c(F)c(F)c1)OCC1CN(c3nccc(=O)[nH]3)CC1NS2(=O)=O (stereo not drawn) [Example E59, cis-7-methyl-2-(6-oxo-1,6-dihydropyrimidin-2-yl)-N-(3,4,5-trifluorophenyl)-2,3,3a,4,10,10a-hexahydro-1H,7H-dipyrrolo[3,4-b:3′,4′-f][1,4,5]oxathiazocine-8-carboxamide 5,5-dioxide] | – | – | > 1000
Cn1cc2c(c1C(=O)Nc1cc(F)c(F)c(F)c1)OCC1CN(C(=O)c3nonc3N)CC1NS2(=O)=O (stereo not drawn) [Example E60, cis-2-(4-amino-1,2,5-oxadiazole-3-carbonyl)-7-methyl-N-(3,4,5-trifluorophenyl)-2,3,3a,4,10,10a-hexahydro-1H,7H-dipyrrolo[3,4-b:3′,4′-f][1,4,5]oxathiazocine-8-carboxamide 5,5-dioxide] | – | – | < 1000
Cc1cc(NC(=O)c2c3c(cn2C)S(=O)(=O)NC2CN(C(=O)c4nonc4N)CC2CO3)ccc1F (stereo not drawn) [Example E61, cis-2-(4-amino-1,2,5-oxadiazole-3-carbonyl)-N-(4-fluoro-3-methylphenyl)-7-methyl-2,3,3a,4,10,10a-hexahydro-1H,7H-dipyrrolo[3,4-b:3′,4′-f][1,4,5]oxathiazocine-8-carboxamide 5,5-dioxide] | – | – | < 1000
Cc1cc(NC(=O)c2c3c(cn2C)S(=O)(=O)NC2CN(C(=O)c4ncon4)CC2CO3)ccc1F (stereo not drawn) [Example E63, cis-N-(4-fluoro-3-methylphenyl)-7-methyl-2-(1,2,4-oxadiazole-3-carbonyl)-2,3,3a,4,10,10a-hexahydro-1H,7H-dipyrrolo[3,4-b:3′,4′-f][1,4,5]oxathiazocine-8-carboxamide 5,5-dioxide] | – | – | < 1000
Cn1cc2c(c1C(=O)Nc1cc(F)c(F)c(F)c1)OCC1CN(C(=O)c3cnco3)CC1NS2(=O)=O (stereo not drawn) [Example E64, cis-7-methyl-2-(oxazole-5-carbonyl)-N-(3,4,5-trifluorophenyl)-2,3,3a,4,10,10a-hexahydro-1H,7H-dipyrrolo[3,4-b:3′,4′-f][1,4,5]oxathiazocine-8-carboxamide 5,5-dioxide] | – | – | < 1000
Cn1cc2c(c1C(=O)Nc1cc(F)c(F)c(F)c1)OCC1CN(C(=O)c3cocn3)CC1NS2(=O)=O (stereo not drawn) [Example E65, cis-7-methyl-2-(oxazole-4-carbonyl)-N-(3,4,5-trifluorophenyl)-2,3,3a,4,10,10a-hexahydro-1H,7H-dipyrrolo[3,4-b:3′,4′-f][1,4,5]oxathiazocine-8-carboxamide 5,5-dioxide] | – | – | < 1000
Cc1cc(NC(=O)c2c3c(cn2C)S(=O)(=O)NC2CN(C(=O)C4(C)COC4)CC2CO3)ccc1F (stereo not drawn) [Example E66, cis-N-(4-fluoro-3-methylphenyl)-7-methyl-2-(3-methyloxetane-3-carbonyl)-2,3,3a,4,10,10a-hexahydro-1H,7H-dipyrrolo[3,4-b:3′,4′-f][1,4,5]oxathiazocine-8-carboxamide 5,5-dioxide] | – | – | < 1000
CC(=O)OCC(=O)N1CC2COc3c(cn(C)c3C(=O)Nc3cc(F)c(F)c(F)c3)S(=O)(=O)NC2C1 (stereo not drawn) [Example E70, cis-2-(7-methyl-5,5-dioxido-8-((3,4,5-trifluorophenyl)carbamoyl)-3a,4,10,10a-tetrahydro-1H,7H-dipyrrolo[3,4-b:3′,4′-f][1,4,5]oxathiazocin-2(3H)-yl)-2-oxoethyl acetate] | < 50 | – | –
Cn1cc2c(c1C(=O)Nc1cc(F)c(F)c(F)c1)OCC1CN(C(=O)CO)CC1NS2(=O)=O (stereo not drawn) [Example E71, cis-2-(2-hydroxyacetyl)-7-methyl-N-(3,4,5-trifluorophenyl)-2,3,3a,4,10,10a-hexahydro-1H,7H-dipyrrolo[3,4-b:3′,4′-f][1,4,5]oxathiazocine-8-carboxamide 5,5-dioxide] | < 50 | – | –
Cn1cc2c(c1C(=O)Nc1cc(F)c(F)c(F)c1)OCC1CN(CC(F)(F)F)CC1NS2(=O)=O (stereo not drawn) [Example E73, cis-7-methyl-2-(2,2,2-trifluoroethyl)-N-(3,4,5-trifluorophenyl)-2,3,3a,4,10,10a-hexahydro-1H,7H-dipyrrolo[3,4-b:3′,4′-f][1,4,5]oxathiazocine-8-carboxamide 5,5-dioxide] | > 50 | – | –
Cn1cc2c(c1C(=O)Nc1cc(F)c(F)c(F)c1)OCC1CN(CC#N)CC1NS2(=O)=O (stereo not drawn) [Example E74, cis-2-(cyanomethyl)-7-methyl-N-(3,4,5-trifluorophenyl)-2,3,3a,4,10,10a-hexahydro-1H,7H-dipyrrolo[3,4-b:3′,4′-f][1,4,5]oxathiazocine-8-carboxamide 5,5-dioxide] | – | > 50 | < 1000
Cn1cc2c(c1C(=O)Nc1cc(F)c(F)c(F)c1)OCC1CN(c3ncc(F)cn3)CC1NS2(=O)=O (stereo not drawn) [Example E75, cis-2-(5-fluoropyrimidin-2-yl)-7-methyl-N-(3,4,5-trifluorophenyl)-2,3,3a,4,10,10a-hexahydro-1H,7H-dipyrrolo[3,4-b:3′,4′-f][1,4,5]oxathiazocine-8-carboxamide 5,5-dioxide] | – | > 50 | < 1000
Cc1cc(NC(=O)c2c3c(cn2C)S(=O)(=O)NC2CN(c4ccnc(Cl)c4)CC2CO3)ccc1F (stereo not drawn) [Example E76, cis-2-(2-chloropyridin-4-yl)-N-(4-fluoro-3-methylphenyl)-7-methyl-2,3,3a,4,10,10a-hexahydro-1H,7H-dipyrrolo[3,4-b:3′,4′-f][1,4,5]oxathiazocine-8-carboxamide 5,5-dioxide] | – | > 50 | < 1000
CCOC(=O)N1C[C@H]2C[C@@H]1COc1c(cn(C)c1C(=O)Nc1cc(F)c(F)c(F)c1)S(=O)(=O)N2 [Example E77, Ethyl (3R,6R)-10-methyl-9-((3,4,5-trifluorophenyl)carbamoyl)-3,4,6,7-tetrahydro-10H-3,6-methanopyrrolo[3,4-b][1,4,5,8]oxathiadiazecine-5(2H)-carboxylate 1,1-dioxide] | – | – | < 1000
Cc1nnc(N2CC3COc4c(cn(C)c4C(=O)Nc4cc(F)c(F)c(F)c4)S(=O)(=O)NC3C2)o1 (stereo not drawn) [Example E78, cis-7-methyl-2-(5-methyl-1,3,4-oxadiazol-2-yl)-N-(3,4,5-trifluorophenyl)-2,3,3a,4,10,10a-hexahydro-1H,7H-dipyrrolo[3,4-b:3′,4′-f][1,4,5]oxathiazocine-8-carboxamide 5,5-dioxide] | – | > 50 | < 1000
Cc1cc(NC(=O)c2c3c(cn2C)S(=O)(=O)NC2CN(CC(F)(F)F)CC2CO3)ccc1F (stereo not drawn) [Example E80, cis-N-(4-fluoro-3-methylphenyl)-7-methyl-2-(2,2,2-trifluoroethyl)-2,3,3a,4,10,10a-hexahydro-1H,7H-dipyrrolo[3,4-b:3′,4′-f][1,4,5]oxathiazocine-8-carboxamide 5,5-dioxide] | > 50 | – | –
Cn1cc2c(c1C(=O)Nc1cc(F)c(F)c(F)c1)OCC1CN(c3ccccn3)CC1NS2(=O)=O (stereo not drawn) [Example E81, cis-7-methyl-2-(pyridin-2-yl)-N-(3,4,5-trifluorophenyl)-2,3,3a,4,10,10a-hexahydro-1H,7H-dipyrrolo[3,4-b:3′,4′-f][1,4,5]oxathiazocine-8-carboxamide 5,5-dioxide] | > 50 | – | –
Cn1cc2c(c1C(=O)Nc1cc(F)c(F)c(F)c1)OCC1CN(c3cnccn3)CC1NS2(=O)=O (stereo not drawn) [Example E82, cis-7-methyl-2-(pyrazin-2-yl)-N-(3,4,5-trifluorophenyl)-2,3,3a,4,10,10a-hexahydro-1H,7H-dipyrrolo[3,4-b:3′,4′-f][1,4,5]oxathiazocine-8-carboxamide 5,5-dioxide] | > 50 | – | –
Cc1noc(N2CC3COc4c(cn(C)c4C(=O)Nc4cc(F)c(F)c(F)c4)S(=O)(=O)NC3C2)n1 (stereo not drawn) [Example E83, cis-7-methyl-2-(3-methyl-1,2,4-oxadiazol-5-yl)-N-(3,4,5-trifluorophenyl)-2,3,3a,4,10,10a-hexahydro-1H,7H-dipyrrolo[3,4-b:3′,4′-f][1,4,5]oxathiazocine-8-carboxamide 5,5-dioxide] | > 50 | – | < 1000
Cc1nnc(C(=O)N2CC3NS(=O)(=O)c4cn(C)c(C(=O)Nc5ccc(F)c(C)c5)c4OCC3(C)C2)o1 (stereo not drawn) [Example E86, cis-N-(4-fluoro-3-methylphenyl)-7,10a-dimethyl-2-(5-methyl-1,3,4-oxadiazole-2-carbonyl)-2,3,3a,4,10,10a-hexahydro-1H,7H-dipyrrolo[3,4-b:3′,4′-f][1,4,5]oxathiazocine-8-carboxamide 5,5-dioxide] | – | – | < 1000
Cc1cc(NC(=O)c2c3c(cn2C)S(=O)(=O)NC2CN(C(=O)c4ncoc4C)CC2(C)CO3)ccc1F (stereo not drawn) [Example E87, cis-N-(4-fluoro-3-methylphenyl)-7,10a-dimethyl-2-(5-methyloxazole-4-carbonyl)-2,3,3a,4,10,10a-hexahydro-1H,7H-dipyrrolo[3,4-b:3′,4′-f][1,4,5]oxathiazocine-8-carboxamide 5,5-dioxide] | – | – | < 1000
